Source: article PMC5119973 (Cancer Medicine, 2016)
Values joined by “and” are separate entries in the source; they are usually repeats but may differ in a detail not shown here. Identical values can stand only once.

What was measured:
[1] = Plasma protein binding in vitro (Transil), mouse plasma; format: in vitro ADME
Protocol: A radioactivity analysis was performed by liquid scintillation counting. […] All compounds were tested for stability at the incubation conditions used.

CDK8 = biological target: T1, CDK8 (Homo sapiens, UniProt P49336); assay: KINOMEscan active-site competitive binding assay; conditions: slash = two separate measurements
T1 construct: purchased DiscoveRx (KINOMEscan service)
T1 sequence (P49336 whole entry): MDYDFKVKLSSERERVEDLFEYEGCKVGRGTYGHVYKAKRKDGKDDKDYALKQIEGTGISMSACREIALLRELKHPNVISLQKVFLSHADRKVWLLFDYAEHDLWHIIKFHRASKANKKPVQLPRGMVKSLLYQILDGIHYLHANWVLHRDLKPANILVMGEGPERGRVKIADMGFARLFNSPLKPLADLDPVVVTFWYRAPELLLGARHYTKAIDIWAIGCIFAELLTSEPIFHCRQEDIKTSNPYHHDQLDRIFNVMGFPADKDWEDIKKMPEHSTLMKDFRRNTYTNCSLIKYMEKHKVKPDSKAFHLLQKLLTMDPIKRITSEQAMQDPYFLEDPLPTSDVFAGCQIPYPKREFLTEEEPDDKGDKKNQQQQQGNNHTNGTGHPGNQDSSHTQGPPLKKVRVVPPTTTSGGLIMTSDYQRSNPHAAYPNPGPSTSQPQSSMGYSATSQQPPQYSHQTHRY

ERK8 = biological target: T2, ERK8 (Homo sapiens, UniProt Q8TD08); assay: KINOMEscan active-site competitive binding assay; conditions: slash = two separate measurements
T2 construct: purchased DiscoveRx (KINOMEscan service)
T2 sequence (Q8TD08 1-544): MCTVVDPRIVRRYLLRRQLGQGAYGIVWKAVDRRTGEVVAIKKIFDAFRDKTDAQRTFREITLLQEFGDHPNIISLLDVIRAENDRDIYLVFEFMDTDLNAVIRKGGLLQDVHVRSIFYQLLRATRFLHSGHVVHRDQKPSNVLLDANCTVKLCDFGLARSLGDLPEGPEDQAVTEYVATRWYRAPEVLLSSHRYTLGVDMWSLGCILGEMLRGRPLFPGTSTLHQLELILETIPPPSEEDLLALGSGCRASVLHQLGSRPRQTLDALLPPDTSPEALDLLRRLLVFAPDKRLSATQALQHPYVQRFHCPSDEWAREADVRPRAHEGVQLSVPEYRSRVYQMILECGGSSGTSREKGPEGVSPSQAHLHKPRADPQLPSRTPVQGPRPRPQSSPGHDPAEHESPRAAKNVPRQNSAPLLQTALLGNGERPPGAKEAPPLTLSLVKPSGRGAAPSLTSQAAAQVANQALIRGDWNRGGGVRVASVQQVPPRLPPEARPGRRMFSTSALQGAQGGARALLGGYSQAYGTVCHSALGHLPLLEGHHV

TAK1 = biological target: T3, TAK1 (Homo sapiens, UniProt O43318); assay: KINOMEscan active-site competitive binding assay; conditions: slash = two separate measurements
T3 construct: purchased DiscoveRx
T3 sequence (O43318 1-606): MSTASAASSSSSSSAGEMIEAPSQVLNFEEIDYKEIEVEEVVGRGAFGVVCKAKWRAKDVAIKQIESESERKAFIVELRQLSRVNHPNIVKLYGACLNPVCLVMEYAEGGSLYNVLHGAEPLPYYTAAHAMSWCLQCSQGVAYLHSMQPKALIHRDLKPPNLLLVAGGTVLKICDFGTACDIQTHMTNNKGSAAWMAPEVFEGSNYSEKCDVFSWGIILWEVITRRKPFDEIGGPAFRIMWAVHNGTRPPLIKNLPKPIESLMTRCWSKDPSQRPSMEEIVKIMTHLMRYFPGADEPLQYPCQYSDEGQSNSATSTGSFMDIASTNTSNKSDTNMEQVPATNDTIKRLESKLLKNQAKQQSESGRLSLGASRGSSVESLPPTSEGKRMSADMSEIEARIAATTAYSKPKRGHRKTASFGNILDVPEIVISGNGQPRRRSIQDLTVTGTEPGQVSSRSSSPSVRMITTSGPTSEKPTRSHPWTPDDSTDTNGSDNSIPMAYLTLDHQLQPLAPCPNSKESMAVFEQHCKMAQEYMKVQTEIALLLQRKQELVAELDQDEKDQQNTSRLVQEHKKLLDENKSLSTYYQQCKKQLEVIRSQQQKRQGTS

p38-beta = biological target: T4, p38-beta (Homo sapiens, UniProt Q15759); assay: KINOMEscan active-site competitive binding assay; conditions: slash = two separate measurements
T4 construct: purchased DiscoveRx (KINOMEscan service)
T4 sequence (Q15759 whole entry): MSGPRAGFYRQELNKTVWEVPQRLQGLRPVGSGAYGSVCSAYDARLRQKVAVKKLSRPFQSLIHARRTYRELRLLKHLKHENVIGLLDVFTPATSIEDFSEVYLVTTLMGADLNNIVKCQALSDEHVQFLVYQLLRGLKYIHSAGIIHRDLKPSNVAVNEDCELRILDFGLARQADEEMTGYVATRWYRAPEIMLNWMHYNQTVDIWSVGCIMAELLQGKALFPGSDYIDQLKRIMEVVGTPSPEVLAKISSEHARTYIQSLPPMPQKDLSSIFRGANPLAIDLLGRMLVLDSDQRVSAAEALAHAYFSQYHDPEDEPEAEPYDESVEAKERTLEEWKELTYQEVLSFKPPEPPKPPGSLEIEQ

DDR2 = biological target: T5, DDR2 (Homo sapiens, UniProt Q16832); assay: KINOMEscan active-site competitive binding assay; conditions: slash = two separate measurements
T5 construct: purchased DiscoveRx (KINOMEscan service)
T5 sequence (Q16832 22-855): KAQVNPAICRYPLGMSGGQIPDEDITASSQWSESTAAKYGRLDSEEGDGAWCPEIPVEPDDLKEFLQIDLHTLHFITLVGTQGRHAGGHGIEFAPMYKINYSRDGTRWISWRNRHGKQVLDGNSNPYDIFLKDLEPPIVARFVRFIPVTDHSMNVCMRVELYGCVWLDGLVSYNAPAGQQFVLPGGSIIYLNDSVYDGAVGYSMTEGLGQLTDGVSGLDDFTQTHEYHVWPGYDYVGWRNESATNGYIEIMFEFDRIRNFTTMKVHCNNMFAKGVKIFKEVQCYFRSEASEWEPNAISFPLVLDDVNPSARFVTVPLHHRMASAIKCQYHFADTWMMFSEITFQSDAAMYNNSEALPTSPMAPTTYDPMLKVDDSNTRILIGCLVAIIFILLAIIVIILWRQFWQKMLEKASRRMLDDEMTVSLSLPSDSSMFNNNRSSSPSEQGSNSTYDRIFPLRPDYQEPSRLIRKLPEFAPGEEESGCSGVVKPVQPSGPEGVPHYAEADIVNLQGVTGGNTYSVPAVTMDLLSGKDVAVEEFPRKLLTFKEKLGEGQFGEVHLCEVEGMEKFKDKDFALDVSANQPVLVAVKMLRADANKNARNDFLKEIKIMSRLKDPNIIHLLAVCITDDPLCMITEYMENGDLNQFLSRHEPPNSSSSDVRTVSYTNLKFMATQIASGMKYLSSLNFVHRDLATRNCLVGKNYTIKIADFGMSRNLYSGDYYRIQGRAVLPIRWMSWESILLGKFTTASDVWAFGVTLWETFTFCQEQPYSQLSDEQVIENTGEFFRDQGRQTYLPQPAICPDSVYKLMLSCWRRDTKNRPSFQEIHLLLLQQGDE

[2] = mouse (CD‐1), male, plasma, arithmetic mean ± SD

Row | Compound | Unbound fraction (%) [1, 2] | Proportion of protein‐bound drug ([1]; murine plasma) | Unbound fraction, fold higher than that of regorafenib ([1]; murine plasma) | Kd (CDK8) | Kd (ERK8) | Kd (TAK1) | Kd (p38-beta) | Kd (DDR2) | fraction unbound ([1]; male, CD-1, mouse, plasma, mouse (CD‐1), arithmetic mean ± SD)
1 | CNC(=O)c1cc(Oc2ccc(NC(=O)Nc3ccc(Cl)c(C(F)(F)F)c3)c(F)c2)cc[n+]1[O-] [M‐2] | 0.888 ± 0.033% | more than 99% | approximately 1.5 fold | 43 nM | 16 nM | 79 nM | 8.7 nM | 5.3 nM | –
2 | NC(=O)c1cc(Oc2ccc(NC(=O)Nc3ccc(Cl)c(C(F)(F)F)c3)c(F)c2)cc[n+]1[O-] [M‐5] | 0.412 ± 0.041% | more than 99% | – | 140 nM | 26 nM | 120 nM | 25 nM | 2.5 nM | –
3 | CNC(=O)c1cc(Oc2ccc(NC(=O)Nc3ccc(Cl)c(C(F)(F)F)c3)c(F)c2)ccn1 [Regorafenib, reference compound] | 0.575 ± 0.039% | more than 99% | – | 100 nM and 73 nM | 25 nM and 17 nM | 170 nM and 260 nM | 44 nM and 28 nM | 9.2 nM and 9.7 nM | ~0.006
